Reference: US12528767B2, “HDAC6 inhibitors and uses thereof” (Eikonizo Therapeutics, Inc., priority 2019, dated 2026)
Like-named read-outs stand apart in the source and are kept apart here.

How the values were obtained:
[1] = biological target: Full length Human HDAC2 (Homo sapiens, UniProt Q92769)
[2] = biological target: Human HDAC4 aa 101-1084(end) (Homo sapiens, UniProt P56524)
[3] = biological target: T1, Full length Human HDAC6 (Homo sapiens, UniProt Q9UBN7)
T1 sequence (Q9UBN7 1-1215): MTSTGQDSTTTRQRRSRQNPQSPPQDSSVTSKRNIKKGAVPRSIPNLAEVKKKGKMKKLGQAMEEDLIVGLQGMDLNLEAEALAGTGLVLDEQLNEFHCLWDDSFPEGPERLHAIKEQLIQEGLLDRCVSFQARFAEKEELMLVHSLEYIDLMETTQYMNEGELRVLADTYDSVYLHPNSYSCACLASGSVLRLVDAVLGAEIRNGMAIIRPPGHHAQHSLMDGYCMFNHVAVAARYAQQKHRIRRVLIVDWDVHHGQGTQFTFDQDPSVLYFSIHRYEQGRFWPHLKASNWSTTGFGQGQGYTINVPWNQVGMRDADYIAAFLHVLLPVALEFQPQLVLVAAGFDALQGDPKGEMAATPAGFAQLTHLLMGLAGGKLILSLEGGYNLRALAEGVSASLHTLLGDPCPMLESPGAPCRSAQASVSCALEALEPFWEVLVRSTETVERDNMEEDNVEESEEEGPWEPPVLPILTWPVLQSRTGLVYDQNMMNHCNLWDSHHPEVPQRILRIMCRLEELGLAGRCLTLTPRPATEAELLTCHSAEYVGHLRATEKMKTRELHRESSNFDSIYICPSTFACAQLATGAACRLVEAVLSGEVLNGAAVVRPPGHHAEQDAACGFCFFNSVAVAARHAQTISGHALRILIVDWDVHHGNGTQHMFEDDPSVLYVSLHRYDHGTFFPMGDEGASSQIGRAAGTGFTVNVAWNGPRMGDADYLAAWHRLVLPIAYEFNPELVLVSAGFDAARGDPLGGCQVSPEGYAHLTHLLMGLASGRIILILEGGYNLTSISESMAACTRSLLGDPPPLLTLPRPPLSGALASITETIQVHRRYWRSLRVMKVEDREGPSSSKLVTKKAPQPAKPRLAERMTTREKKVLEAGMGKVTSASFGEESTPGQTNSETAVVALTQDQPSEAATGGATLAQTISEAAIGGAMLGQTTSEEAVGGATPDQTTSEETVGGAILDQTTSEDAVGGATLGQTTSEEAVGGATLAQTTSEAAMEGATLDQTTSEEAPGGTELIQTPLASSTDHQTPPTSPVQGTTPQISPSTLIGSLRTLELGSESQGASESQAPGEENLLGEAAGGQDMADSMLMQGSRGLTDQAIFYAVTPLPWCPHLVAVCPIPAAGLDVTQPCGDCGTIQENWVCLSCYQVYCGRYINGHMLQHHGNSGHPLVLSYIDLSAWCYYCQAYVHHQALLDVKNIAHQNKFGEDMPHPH

[4] = biological target: T2, Human HDAC7 aa 518-end (Homo sapiens, UniProt Q8WUI4)
T2 sequence (Q8WUI4 518-952 limits assumed): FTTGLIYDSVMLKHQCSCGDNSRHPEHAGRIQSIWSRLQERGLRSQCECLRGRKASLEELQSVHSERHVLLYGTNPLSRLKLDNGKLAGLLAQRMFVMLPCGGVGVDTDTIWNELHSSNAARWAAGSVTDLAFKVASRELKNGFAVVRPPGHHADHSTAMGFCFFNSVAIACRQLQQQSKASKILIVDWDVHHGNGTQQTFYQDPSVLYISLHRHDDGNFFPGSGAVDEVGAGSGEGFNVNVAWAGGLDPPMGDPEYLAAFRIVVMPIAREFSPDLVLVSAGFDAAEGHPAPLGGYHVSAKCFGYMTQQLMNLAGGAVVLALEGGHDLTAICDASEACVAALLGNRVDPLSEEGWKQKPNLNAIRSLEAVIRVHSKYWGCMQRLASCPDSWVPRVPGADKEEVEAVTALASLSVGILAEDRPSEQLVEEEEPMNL

[5] = biological target: T3, Full length Human HDAC8 (Homo sapiens, UniProt Q9BY41)
T3 sequence (Q9BY41 1-377): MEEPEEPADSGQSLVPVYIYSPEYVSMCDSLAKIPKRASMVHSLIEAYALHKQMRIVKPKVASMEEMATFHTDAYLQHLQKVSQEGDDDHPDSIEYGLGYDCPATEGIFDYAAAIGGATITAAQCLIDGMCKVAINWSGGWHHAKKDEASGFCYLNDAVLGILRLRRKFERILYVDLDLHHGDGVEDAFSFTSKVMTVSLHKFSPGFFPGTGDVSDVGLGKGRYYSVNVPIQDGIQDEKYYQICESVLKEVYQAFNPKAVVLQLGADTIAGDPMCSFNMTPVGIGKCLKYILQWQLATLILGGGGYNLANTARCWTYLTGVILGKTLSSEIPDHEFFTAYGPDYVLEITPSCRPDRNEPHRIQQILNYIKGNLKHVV

[6] = biological target: T4, Full length Human HDAC10 (Homo sapiens, UniProt Q969S8)
T4 sequence (Q969S8 1-669): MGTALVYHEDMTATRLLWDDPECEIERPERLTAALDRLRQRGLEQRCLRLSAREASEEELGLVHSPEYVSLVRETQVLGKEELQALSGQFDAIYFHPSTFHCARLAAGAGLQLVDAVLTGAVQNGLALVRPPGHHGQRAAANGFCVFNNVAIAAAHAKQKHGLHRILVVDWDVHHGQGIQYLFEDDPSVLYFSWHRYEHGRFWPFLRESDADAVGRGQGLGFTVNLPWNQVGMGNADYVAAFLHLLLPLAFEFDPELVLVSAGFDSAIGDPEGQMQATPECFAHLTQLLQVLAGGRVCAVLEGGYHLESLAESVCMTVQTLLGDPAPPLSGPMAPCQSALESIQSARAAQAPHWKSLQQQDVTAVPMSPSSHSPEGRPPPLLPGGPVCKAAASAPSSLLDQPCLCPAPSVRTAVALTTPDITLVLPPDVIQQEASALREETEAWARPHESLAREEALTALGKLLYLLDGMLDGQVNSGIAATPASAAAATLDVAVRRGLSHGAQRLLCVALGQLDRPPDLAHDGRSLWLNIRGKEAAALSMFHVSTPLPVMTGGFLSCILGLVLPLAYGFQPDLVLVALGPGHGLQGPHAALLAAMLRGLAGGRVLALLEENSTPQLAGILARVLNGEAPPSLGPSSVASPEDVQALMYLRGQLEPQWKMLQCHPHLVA

[7] = read-out: In vitro enzymatic IC50, HDAC Paralog 6, Table 2
[8] = read-out: In vitro enzymatic IC50, HDAC Paralog 8, Table 2

Sequence of Human HDAC4 aa 101-1084(end) (P56524 101-1084): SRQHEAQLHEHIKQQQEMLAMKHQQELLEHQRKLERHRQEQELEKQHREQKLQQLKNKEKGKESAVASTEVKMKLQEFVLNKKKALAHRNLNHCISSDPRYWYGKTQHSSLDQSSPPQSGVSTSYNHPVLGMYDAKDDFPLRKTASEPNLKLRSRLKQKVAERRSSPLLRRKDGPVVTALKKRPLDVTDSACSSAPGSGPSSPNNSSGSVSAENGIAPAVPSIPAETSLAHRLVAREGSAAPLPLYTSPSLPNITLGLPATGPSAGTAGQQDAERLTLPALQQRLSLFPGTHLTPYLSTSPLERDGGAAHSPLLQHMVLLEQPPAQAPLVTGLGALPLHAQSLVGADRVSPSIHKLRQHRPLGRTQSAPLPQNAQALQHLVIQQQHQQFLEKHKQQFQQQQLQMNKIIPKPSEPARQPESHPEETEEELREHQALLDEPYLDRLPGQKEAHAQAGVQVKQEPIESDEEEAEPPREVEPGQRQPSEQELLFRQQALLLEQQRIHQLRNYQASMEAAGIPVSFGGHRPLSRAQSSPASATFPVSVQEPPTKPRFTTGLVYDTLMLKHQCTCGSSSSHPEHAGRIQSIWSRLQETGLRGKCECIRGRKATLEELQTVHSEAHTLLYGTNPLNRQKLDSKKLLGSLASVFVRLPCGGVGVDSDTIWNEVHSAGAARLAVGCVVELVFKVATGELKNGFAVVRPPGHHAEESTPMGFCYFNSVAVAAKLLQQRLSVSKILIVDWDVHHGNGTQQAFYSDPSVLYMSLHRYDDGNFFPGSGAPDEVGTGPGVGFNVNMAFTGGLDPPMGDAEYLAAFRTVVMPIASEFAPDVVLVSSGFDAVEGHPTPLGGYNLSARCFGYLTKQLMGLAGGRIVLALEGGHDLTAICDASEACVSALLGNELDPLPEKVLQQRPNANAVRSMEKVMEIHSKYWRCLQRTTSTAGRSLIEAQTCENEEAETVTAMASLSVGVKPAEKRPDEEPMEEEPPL
Sequence of Full length Human HDAC2 (Q92769 whole entry, the tested form may be a part): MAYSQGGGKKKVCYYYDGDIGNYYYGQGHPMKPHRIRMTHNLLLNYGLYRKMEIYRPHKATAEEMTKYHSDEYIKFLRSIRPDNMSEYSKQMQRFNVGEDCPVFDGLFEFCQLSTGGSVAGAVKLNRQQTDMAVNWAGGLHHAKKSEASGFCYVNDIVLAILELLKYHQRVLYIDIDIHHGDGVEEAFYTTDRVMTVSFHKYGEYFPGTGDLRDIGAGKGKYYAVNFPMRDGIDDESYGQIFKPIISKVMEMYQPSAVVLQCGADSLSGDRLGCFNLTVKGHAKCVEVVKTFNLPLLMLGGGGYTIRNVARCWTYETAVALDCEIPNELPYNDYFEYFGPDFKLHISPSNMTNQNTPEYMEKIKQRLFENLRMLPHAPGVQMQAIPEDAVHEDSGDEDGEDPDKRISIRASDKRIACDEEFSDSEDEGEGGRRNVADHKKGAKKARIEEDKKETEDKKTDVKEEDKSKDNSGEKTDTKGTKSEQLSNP

| Structure (SMILES) | IC50 [1] | IC50 [2] | IC50 [3] | IC50 [3, 7] | IC50 [4] | IC50 [5] | IC50 [5, 8] | IC50 [6] |
| --- | --- | --- | --- | --- | --- | --- | --- | --- |
| O=C(NO)c1cc(F)c2c(c1)CCN(CC13CC4CC(CC(C4)C1)C3)C2 [compound 34] | 10 to 100 µM | 10 to 100 µM | 1 to 100 nM | 1 to 100 nM | 10 to 100 µM | 10 to 100 µM | 10 to 100 µM | 10 to 100 µM |
| O=C(NO)c1ccc(CN2C[C@@H]3CC[C@H]2CO3)c(F)c1 (single isomer, unassigned) [compound 172] | > 100 µM | 10 to 100 µM | 1 to 100 nM | 1 to 100 nM | 1 to 10 µM | 1 to 10 µM | 1 to 10 µM | > 100 µM |
| O=C(NO)c1ccc(CN2CC3CCC(C2)O3)c(F)c1 [compound 53] | 10 to 100 µM | 1 to 10 µM | 1 to 100 nM | 1 to 100 nM | 0.1 to 1 µM | 0.1 to 1 µM | 0.1 to 1 µM | 1 to 10 µM |
| O=C(NO)c1cc(F)c2c(c1)C[C@H]1CCCCN1C2 (single isomer, unassigned) [compound 94] | > 100 µM | 10 to 100 µM | 100 to 1000 nM |  | 1 to 10 µM | 1 to 10 µM |  | > 100 µM |
| O=C(NO)c1cc(F)c2c(c1)CCN1CCC[C@@H]21 (single isomer, unassigned) [compound 79] | 10 to 100 µM | 1 to 10 µM | 1 to 100 nM |  | 0.1 to 1 µM | 1 to 10 µM |  | 10 to 100 µM |
| O=C(NO)c1cc(F)c2c(c1)CCN(Cc1ccccc1)C2 [compound 32] |  |  | 1 to 100 nM | 1 to 100 nM | 1 to 10 µM | 1 to 10 µM | 1 to 10 µM | 10 to 100 µM |
| O=C(NO)c1ccc2c(c1)CN1CCCCN1C2 [compound 106, N-hydroxy-1,2,3,4,6,11-hexahydropyridazino[1,2-b]phthalazine-8-carboxamide] | 10 to 100 µM | 10 to 100 µM | 100 to 1000 nM | 100 to 1000 nM | 10 to 100 µM | 1 to 10 µM | 1 to 10 µM | > 100 µM |
| O=C(NO)c1ccc(CN2CC3CCC2CO3)c(F)c1 (stereo not drawn) [compound 58] | 10 to 100 µM | 1 to 10 µM | 1 to 100 nM | 1 to 100 nM | 1 to 10 µM | 0.1 to 1 µM | 0.1 to 1 µM | 10 to 100 µM |
| O=C(NO)c1ccc(CN2C[C@H]3CC[C@@H]2CO3)c(F)c1 (single isomer, unassigned) [compound 173] | 10 to 100 µM | 1 to 10 µM | 1 to 100 nM |  | 1 to 10 µM | 1 to 10 µM |  | 10 to 100 µM |
| O=C(NO)c1cc(F)c2c(c1)CCN(C1CC3(CCCCC3)C1)C2 [compound 16] | 10 to 100 µM | 10 to 100 µM | 1 to 100 nM | 1 to 100 nM | 10 to 100 µM | 10 to 100 µM | 10 to 100 µM | 10 to 100 µM |
| O=C(NO)c1ccc(CN2CCC3(CCCCC3)C2)c(F)c1 [compound 75, 4-((2-Azaspiro[4.5]decan-2-yl)methyl)-3-fluoro-N-hydroxybenzamide] |  |  | 1 to 100 nM | 1 to 100 nM | 1 to 10 µM | 1 to 10 µM | 1 to 10 µM | 10 to 100 µM |
| O=C(NO)c1cc(F)c2c(c1)C[C@@H]1CCCCN1C2 (single isomer, unassigned) [compound 93] | 10 to 100 µM | 1 to 10 µM | 1 to 100 nM |  | 1 to 10 µM | 1 to 10 µM |  | 10 to 100 µM |
